Assay results as given in patent US20200171051A1, “METHODS FOR TREATING RENAL INJURY BY […] UPREGULATING P21” (RENIBUS THERAPEUTICS, INC., priority 2018, published 2020).

Legend:
[1] = in vivo; cited from earlier work
[2] = relative to cortisol = 1; cited from earlier work
[3] = system: renal cortical p21; experiment: Glycerol AKI model: renal cortical p21 mRNA (RT-PCR, factored by GAPDH) and p21 protein (ELISA); type: in vivo, male CD-1 mice
Description: (§1) The present inventors conducted studies to better understand the factors that drive renal p21 expression during AKI. All experiments were performed using male CD-1 mice (35-40 grams, Charles River Laboratories, Wilmington, Del.) maintained under routine vivarium conditions with free food and water access. The AKI models were approved by the institution's Animal Care and Utilization Committee). All surgical procedures were conducted under deep pentobarbital anesthesia (40-50 mg/Kg IP).
Mice were briefly anesthetized with isoflurane, and then subjected to intramuscular glycerol injection (administered in equally divided doses into each hind limb). The glycerol dose ware varied (6, 6.5, 7, 7.5, 8, 8.5, 9 ml/Kg; n˜2-3 per dose) in order to produce variable degrees of renal injury. At 4 hrs post glycerol injection, a tail vein tail vein blood sample (˜25 μl) was obtained, and at 18 hrs, the mice were deeply anesthetized with pentobarbital. The abdominal cavity was opened through a midline abdominal incision, a terminal vena cava blood sample was obtained, the kidneys were removed, iced, and renal cortical samples were cut and extracted for both protein and total RNA (RNeasy Mini+; Qiagen; Germantown, Md.). A terminal urine sample was collected from the urinary bladder. Plasma samples were assayed for blood urea nitrogen (BUN) and creatinine (Cr). Johnson A C, Zager R A. Plasma and urinary p21: potential biomarkers of AKI and renal aging. Am J Physiol 2018; Aug. 1. doi: 10.1152/ajprenal.00328.2018. [Epub ahead of print]. Renal cortical, plasma, and urinary p21 concentrations were determined with a ‘sandwich’ ELISA which employs two distinct monoclonal antibodies (capture; detection) directed against two different p21 epitopes, conferring p21 specificity; (#2120721; Abcam, Cambridge, Mass.). Renal cortical p21 mRNA levels were determined by RT-PCR, factored by GAPDH. Ten normal mice provided control plasma, urine, and tissue values for comparisons.
To assess renal cortical changes at an earlier time point than that noted above (18 hrs post glycerol injection), an additional 5 mice were subjected to glycerol injection (8.5 ml/Kg) and 4 hrs later, renal cortical protein/RNA samples were obtained for use in the above noted assays. The results were contrasted to those observed in 5 normal mice.
Pifithrin-α is a stable, water soluble, p53 inhibitor which blocks activation of p53 responsive genes. Dagher P C, Mai E M, Hato T, Lee S Y, Anderson M D Karozos S C Mang H E, Knipe N L, Plotkin Z, Sutton T A: The p53 inhibitor pifithrin can stimulate fibrosis in a rat model of ischemic acute kidney injury. Am J Physiol Renal Physiol 302: F284-F291, 2012; Komarov P G, Komarova E A, Kondratov R V, Christov-Tselkov K, Coon J S, Chernov M V et al. A chemical inhibitor of p53 that protects mice from the side effects of cancer therapy. Science 285: 1733-1737, 1999. As such, it has been used to differentiate p53-dependent vs. p53-independent pathways. To further explore the potential role of p53 on p21 gene activation, 3 mice were injected IP with 10 mg/Kg pifithrin-α (10% DMSO in saline; EMD Millipore #506154; Burlington, Mass.). Three additional mice received vehicle injection. Immediately thereafter the mice were injected with […] glycerol. Four hrs post glycerol injection, renal cortical tissues were analyzed for p21 and p53 mRNAs.
Inflammation can induce p21 gene activation via the inflammatory cascade (1, 2). Basile J R, Eichten A, Zacny V, Münger K. NF-kappaB-mediated induction of p21(Cip1/Waf1) by tumor necrosis factor alpha induces growth arrest and cytoprotection in normal human keratinocytes. Mol Cancer Res. 2003; 4: 262-270; Bellido T, O'Brien C A, Roberson P K, Manolagas S C: Transcriptional Activation of the p21WAF1,CIP1,SDI1 Gene by Interleukin-6 Type Cytokines. J Biol Chem 1998; 273:21137-21144. […]

[4] = system: renal cortical p53 mRNA; experiment: Glycerol AKI model: renal cortical p53 mRNA; type: in vivo, male CD-1 mice; conditions: 4 hr post glycerol + pifithrin-α 10 mg/Kg IP; mean ± SEM; glycerol alone 0.75±0.02; NS
Description: as §1
Mice were briefly anesthetized with isoflurane, and then subjected to intramuscular glycerol injection (administered in equally divided doses into each hind limb). The glycerol dose ware varied (6, 6.5, 7, 7.5, 8, 8.5, 9 ml/Kg; n˜2-3 per dose) in order to produce variable degrees of renal injury. […] Renal cortical, plasma, and urinary p21 concentrations were determined with a ‘sandwich’ ELISA which employs two distinct monoclonal antibodies (capture; detection) directed against two different p21 epitopes, conferring p21 specificity; (#2120721; Abcam, Cambridge, Mass.). Renal cortical p21 mRNA levels were determined by RT-PCR, factored by GAPDH. […]
Pifithrin-α is a stable, water soluble, p53 inhibitor which blocks activation of p53 responsive genes. […] Four hrs post glycerol injection, renal cortical tissues were analyzed for p21 and p53 mRNAs. […]

[5] = system: renal cortical p21; experiment: Normal mice (no renal injury): renal cortical p21 protein and mRNA; type: in vivo, male CD-1 mice
Description: The present inventors conducted studies to better understand the factors that drive renal p21 expression during AKI. All experiments were performed using male CD-1 mice (35-40 grams, Charles River Laboratories, Wilmington, Del.) maintained under routine vivarium conditions with free food and water access. The AKI models were approved by the institution's Animal Care and Utilization Committee). All surgical procedures were conducted under deep pentobarbital anesthesia (40-50 mg/Kg IP). Mice were briefly anesthetized with isoflurane, and then subjected to intramuscular glycerol injection (administered in equally divided doses into each hind limb). […] At 4 hrs post glycerol injection, a tail vein tail vein blood sample (˜25 μl) was obtained, and at 18 hrs, the mice were deeply anesthetized with pentobarbital. The abdominal cavity was opened through a midline abdominal incision, a terminal vena cava blood sample was obtained, the kidneys were removed, iced, and renal cortical samples were cut and extracted for both protein and total RNA (RNeasy Mini+; Qiagen; Germantown, Md.). A terminal urine sample was collected from the urinary bladder. Plasma samples were assayed for blood urea nitrogen (BUN) and creatinine (Cr). Johnson A C, Zager R A. Plasma and urinary p21: potential biomarkers of AKI and renal aging. Am J Physiol 2018; […] [Epub ahead of print]. Renal cortical, plasma, and urinary p21 concentrations were determined with a ‘sandwich’ ELISA which employs two distinct monoclonal antibodies (capture; detection) directed against two different p21 epitopes, conferring p21 specificity; (#2120721; Abcam, Cambridge, Mass.). Renal cortical p21 mRNA levels were determined by RT-PCR, factored by GAPDH. Ten normal mice provided control plasma, urine, and tissue values for comparisons. To determine the impact of DXM on renal p21 expression in the absence of renal injury, 5 mice were injected with DXM as above, and 4 hrs later p21 protein/mRNA levels were measured and compared to normal values. Given an unexpected finding that corticosteroid injection increased, rather than suppressed, p21 expression, and given that endogenous cortisol levels were markedly elevated post-glycerol injection, we questioned whether glucocorticoid receptor (GCR) blockade would decrease p21 expression. […] Four hrs later, the kidneys were removed and renal cortices were analyzed for p21 mRNA and protein levels. Four mice, treated with mifepristone in the absence of glycerol injection, served to evaluate its effects in the absence of glycerol injection.

[6] = control mice, 4 hrs post MFP 30 mg/Kg, in words
[7] = glycerol treated mice, 4 hrs, MFP 30 mg/Kg, in words
[8] = normal mice, within 4 hrs of DXM injection (250 μg IP)
[9] = 4 hr post glycerol kidneys, DXM 250 μg IP 30 min before glycerol 8.5 ml/Kg

For C[C@]12C=CC(=O)C=C1CC[C@@H]1[C@@H]2C(=O)C[C@@]2(C)[C@H]1CC[C@]2(O)C(=O)CO [Prednisone], the “Terminal half-life” value [1] is given as 16 to 36 h.
In the case of C[C@]12CCC(=O)C=C1CC[C@@H]1[C@@H]2C(=O)C[C@@]2(C)[C@H]1CC[C@]2(O)C(=O)CO [Cortisone], the Glucocorticoid potency [2] is given as 0.8.
For Cc1ccc(C(=O)Cn2c3c(sc2=N)CCCC3)cc1 [pifithrin-α, Pifithrin-α], the “renal cortical p21 mRNA” value ([3]; 4 hr post glycerol + pifithrin-α 10 mg/Kg IP, mean ± SEM, controls 0.34±0.1, glycerol alone 1.43±0.11) was 1.71±0.08 and the “renal cortical p53 mRNA” value [4] was 0.7±0.03.
For C[C@]12CCC(=O)C=C1CC[C@@H]1[C@@H]2[C@@H](O)C[C@@]2(C)[C@H]1CC[C@]2(O)C(=O)CO [Cortisol], the Glucocorticoid potency [2] is listed as 1, the “effect on 4 hr post glycerol p21 mRNA levels” value ([3]; cortisol 1 mg/Kg IP 30 min before glycerol 8.5 ml/Kg, in words) is listed as “to the same degree as did DXM injection” and the “Terminal half-life” value [1] is listed as 8 h.
In the case of CC#C[C@]1(O)CC[C@H]2[C@@H]3CCC4=CC(=O)CCC4=C3[C@@H](c3ccc(N(C)C)cc3)C[C@@]21C [Mifepristone], the “effect on p21 mRNA values” [5, 6] is reported as “no significant decrease”, the “effect on p21 protein values” [5, 6] is reported as “no significant decrease” and the “effect on p21 protein levels” value [3, 7] is reported as “normalized”. For the same compound, the “effect on post glycerol p21 mRNA levels” value [3, 7] was “modest reduction”.
In the case of C[C@]12C=CC(=O)C=C1CC[C@@H]1[C@@H]2[C@@H](O)C[C@@]2(C)[C@H]1CC[C@]2(O)C(=O)CO [Prednisolone], the Glucocorticoid potency [2] is given as 4 and the “Terminal half-life” value [1] is given as 16 to 36 h.
For C[C@]12C=CC(=O)C=C1CC[C@H]1[C@@H]3C[C@@H](O)[C@](O)(C(=O)CO)[C@@]3(C)C[C@H](O)[C@@]12F [Triamcinolone], the Glucocorticoid potency [2] is listed as 5 and the “Terminal half-life” value [1] is listed as 12 to 36 h.
In the case of C[C@H]1C[C@@H]2[C@H]([C@@H](O)C[C@@]3(C)[C@H]2CC[C@]3(O)C(=O)CO)[C@@]2(C)C=CC(=O)C=C12 [Methylprednisolone], the “Terminal half-life” value [1] is given as 18 to 40 h.
With C[C@@H]1C[C@H]2[C@@H]3CCC4=CC(=O)C=C[C@]4(C)[C@@]3(F)[C@@H](O)C[C@]2(C)[C@@]1(O)C(=O)CO [Dexamethasone] the “increase in renal cortical p21 mRNA” value [5, 8] was 15 ×, the “increase in renal cortical p21 protein” value [5, 8] was 10 × and the “increase in p21 mRNA” value [3, 9] was about 3 fold. The “increase in p21 protein” value [3, 9] was about 3 fold.
